# Oligonucleotides are written 5' to 3', each unit as a sugar letter and its base; * is a phosphorothioate linkage, no mark a phosphodiester; rarer units and linkages stand in square brackets, end groups in braces. Plain capitals give the bases only. k = constrained ethyl (cEt); [5mC] = 5-methylcytosine; d = 2'-deoxy (DNA)
# Experiments:
# Format in all cases: cell-based, human
# C4-2B MR cells = test: Proliferation of MDV3100-resistant C4-2B cells (CellTiter 96); conditions: 6 days
# Procedure, shortened: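 Antisense oligonucleotides were added to the culture medium at 0.04, 0.20, 1.00 and 5.00 μM, with a non-targeting oligonucleotide as negative control. After 6 days of treatment, proliferation was read with CellTiter 96 AQueous One. Values are percent inhibition relative to untreated cells.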
# TMPRSS2 mRNA [1] = test: Time-course TMPRSS2 expression in C4-2B cells
# Procedure, shortened: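 C4-2B cells at 1,000/well in complete medium, treated with antisense oligonucleotide; ISIS 549148 as negative control. PSA and TMPRSS2 mRNA measured after 8, 24 and 48 h, given as percent inhibition relative to non-treated cells.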
# TMPRSS2 mRNA [2] = test: TMPRSS2 expression in LNCaP cells (complete, CSS+DHT medium); conditions: for Percent inhibition of TMPRSS2 expression in LNCaP cells cultured in CSS + DHT medium: CSS + DHT (1 nM) medium, 48 hrs; for Percent inhibition of TMPRSS2 expression in LNCaP cells cultured in complete medium: 48 hours
# Procedure, shortened: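 LNCaP cells treated with antisense oligonucleotides, ISIS 549148 as negative control; AR, PSA and TMPRSS2 RNA measured after 48 h. Complete medium used 1,000 cells/well; stripped-serum condition used 2,000 cells/well in phenol red-free RPMI with 5% charcoal-stripped serum, with 1 nM DHT (final) added 4 h after treatment.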
# AR mRNA = test: AR RNA expression in LNCaP cells (complete, CSS, CSS+DHT medium); conditions: for Percent expression of AR in LNCaP cells cultured in CSS + DHT medium: CSS + DHT (1 nM) medium; for Percent expression of AR in LNCaP cells cultured in CSS + DHT medium / Percent expression of AR in LNCaP cells cultured in CSS medium: 48 hrs; for Percent expression of AR in LNCaP cells cultured in complete medium: 48 hours
# TMPRSS2 mRNA [3] = test: TMPRSS2 expression in 22RV1 cells; conditions: RNAiMax, 48 hrs
# Procedure, shortened: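 In 22RV1 cells, full-length AR, AR-V7, PSA and TMPRSS2 RNA measured after 48 h compound incubation. Complete-medium format used 1,000 cells/well; CSS+DHT format used 2,000 cells/well cultured 16 h in CSS medium, with 1 nM DHT added after 4 h.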
# PSA mRNA = test: PSA expression in C4-2 cells; conditions: 48 hrs; for Percent inhibition of PSA expression: C4-2 cells, CSS + DHT medium
# Protocol: Cells were plated at 1,000 cells per well. […] After an incubation period of 48 hrs, RNA levels of AR, PSA and TMPRSS2 were measured.
# Cells were plated at 2,000 cells per well and cultured in CSS media with 1 nM DHT. […] After an incubation period of 48 hrs, RNA levels of AR, PSA and TMPRSS2 were measured.
# LNCaP cells = test: LNCaP cell proliferation (complete or CSS+DHT medium); conditions: 5 days; for Proliferation (% untreated control) in LNCaP cells cultured in CSS + DHT medium: CSS + 1 nM DHT medium
# Procedure, shortened: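 Proliferation of LNCaP cells read after 5 days of treatment in complete medium or charcoal-stripped serum medium plus 1 nM DHT, using CellTiter 96 AQueous One (MTS) or CellTiter-Glo.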
substance,measurement,setting,value
549372 (kA*kA*kG*dT*dT*dG*dT*dA*dG*dT*dA*dG*dT*k[5mC]*kG*k[5mC]) [compound 549372],Percent inhibition of C4-2B MR cell proliferation,C4-2B MR cells; 0.04 μM,0%
same,Percent inhibition of C4-2B MR cell proliferation,C4-2B MR cells; 0.20 μM,4%
same,Percent inhibition of C4-2B MR cell proliferation,C4-2B MR cells; 1.00 μM,25%
same,Percent inhibition of C4-2B MR cell proliferation,C4-2B MR cells; 5.00 μM,43%
549458 (kG*kT*kT*dG*dA*dT*dT*dT*dA*dA*dT*dG*dG*kT*kT*kG) [compound 549458],Percent inhibition of C4-2B MR cell proliferation,C4-2B MR cells; 0.04 μM,8%
same,Percent inhibition of C4-2B MR cell proliferation,C4-2B MR cells; 0.20 μM,16%
same,Percent inhibition of C4-2B MR cell proliferation,C4-2B MR cells; 1.00 μM,41%
same,Percent inhibition of C4-2B MR cell proliferation,C4-2B MR cells; 5.00 μM,56%
"GTTGATTTAATGGTTG (all phosphorothioate, sugars by position not given here; further chemistry not fully specified) [ISIS 549458]",proliferation of C4-2B MR cells,C4-2B MR cells; 0.04-5.00 μM,reduced proliferation of the cells in a dose dependent manner more extensively than treatment with ISIS 554221
"TTGATTTAATGGTTGC [ISIS 560131] (MOE and (S)-cEt gapmer chemistry, further chemistry not given here) [targets intron 1]",Percent inhibition of TMPRSS2 expression compared to the control group in 8 hours,TMPRSS2 mRNA [1]; 0.04 μM,0%
same,Percent inhibition of TMPRSS2 expression compared to the control group in 24 hours,TMPRSS2 mRNA [1]; 0.04 μM,35%
same,Percent inhibition of TMPRSS2 expression compared to the control group in 48 hours,TMPRSS2 mRNA [1]; 0.04 μM,46%
same,Percent inhibition of TMPRSS2 expression compared to the control group in 8 hours,TMPRSS2 mRNA [1]; 0.2 μM,0%
same,Percent inhibition of TMPRSS2 expression compared to the control group in 24 hours,TMPRSS2 mRNA [1]; 0.2 μM,57%
same,Percent inhibition of TMPRSS2 expression compared to the control group in 48 hours,TMPRSS2 mRNA [1]; 0.2 μM,71%
same,Percent inhibition of TMPRSS2 expression compared to the control group in 8 hours,TMPRSS2 mRNA [1]; 1 μM,6%
same,Percent inhibition of TMPRSS2 expression compared to the control group in 24 hours,TMPRSS2 mRNA [1]; 1 μM,66%
same,Percent inhibition of TMPRSS2 expression compared to the control group in 48 hours,TMPRSS2 mRNA [1]; 1 μM,77%
same,Percent inhibition of TMPRSS2 expression compared to the control group in 8 hours,TMPRSS2 mRNA [1]; 5.0 μM,0%
same,Percent inhibition of TMPRSS2 expression compared to the control group in 24 hours,TMPRSS2 mRNA [1]; 5.0 μM,67%
same,Percent inhibition of TMPRSS2 expression compared to the control group in 48 hours,TMPRSS2 mRNA [1]; 5.0 μM,76%
same,TMPRSS2 expression,TMPRSS2 mRNA [1]; time course,reduced PSA and TMPRSS2 expression in the cells relative to the control set at the 24 hr and 48 hr time points
same,Percent inhibition of TMPRSS2 expression in LNCaP cells cultured in CSS + DHT medium,TMPRSS2 mRNA [2]; 0.04 μM,6%
same,Percent inhibition of TMPRSS2 expression in LNCaP cells cultured in CSS + DHT medium,TMPRSS2 mRNA [2]; 0.2 μM,11%
same,Percent inhibition of TMPRSS2 expression in LNCaP cells cultured in CSS + DHT medium,TMPRSS2 mRNA [2]; 1 μM,26%
same,Percent inhibition of TMPRSS2 expression in LNCaP cells cultured in CSS + DHT medium,TMPRSS2 mRNA [2]; 5.0 μM,64%
same,Percent inhibition of TMPRSS2 expression in LNCaP cells cultured in complete medium,TMPRSS2 mRNA [2]; 0.04 μM,0%
same,Percent inhibition of TMPRSS2 expression in LNCaP cells cultured in complete medium,TMPRSS2 mRNA [2]; 0.2 μM,25%
same,Percent inhibition of TMPRSS2 expression in LNCaP cells cultured in complete medium,TMPRSS2 mRNA [2]; 1 μM,50%
same,Percent inhibition of TMPRSS2 expression in LNCaP cells cultured in complete medium,TMPRSS2 mRNA [2]; 5.0 μM,51%
same,Percent expression of AR in LNCaP cells cultured in CSS + DHT medium,AR mRNA; 0.04 μM,101%
same,Percent expression of AR in LNCaP cells cultured in CSS + DHT medium,AR mRNA; 0.2 μM,71%
same,Percent expression of AR in LNCaP cells cultured in CSS + DHT medium,AR mRNA; 1 μM,27%
same,Percent expression of AR in LNCaP cells cultured in CSS + DHT medium,AR mRNA; 5.0 μM,10%
same,Percent expression of AR in LNCaP cells cultured in CSS medium,AR mRNA; 0.04 μM,81%
same,Percent expression of AR in LNCaP cells cultured in CSS medium,AR mRNA; 0.2 μM,46%
same,Percent expression of AR in LNCaP cells cultured in CSS medium,AR mRNA; 1 μM,16%
same,Percent expression of AR in LNCaP cells cultured in CSS medium,AR mRNA; 5.0 μM,5%
same,Percent expression of AR in LNCaP cells cultured in complete medium,AR mRNA; 0.04 μM,101%
same,Percent expression of AR in LNCaP cells cultured in complete medium,AR mRNA; 0.2 μM,53%
same,Percent expression of AR in LNCaP cells cultured in complete medium,AR mRNA; 1 μM,17%
same,Percent expression of AR in LNCaP cells cultured in complete medium,AR mRNA; 5.0 μM,7%
same,Percent inhibition of TMPRSS2 expression,"TMPRSS2 mRNA [3]; CSS + DHT medium, 1.34 nM",39%
same,Percent inhibition of TMPRSS2 expression,"TMPRSS2 mRNA [3]; CSS + DHT medium, 4.0 nM",50%
same,Percent inhibition of TMPRSS2 expression,"TMPRSS2 mRNA [3]; CSS + DHT medium, 13.4 nM",59%
same,Percent inhibition of TMPRSS2 expression,"TMPRSS2 mRNA [3]; complete medium, 1.34 nM",7%
same,Percent inhibition of TMPRSS2 expression,"TMPRSS2 mRNA [3]; complete medium, 4.0 nM",3%
same,Percent inhibition of TMPRSS2 expression,"TMPRSS2 mRNA [3]; complete medium, 13.4 nM",19%
same,Percent inhibition of TMPRSS2 expression,"TMPRSS2 mRNA [3]; complete medium, 40 nM",32%
same,Percent inhibition of PSA expression,PSA mRNA; 0.04 μM,10%
same,Percent inhibition of PSA expression,PSA mRNA; 0.2 μM,24%
same,Percent inhibition of PSA expression,PSA mRNA; 1 μM,49%
same,Percent inhibition of PSA expression,PSA mRNA; 5.0 μM,74%
same,Percent inhibition of PSA expression in C4-2 cells cultured in complete medium,PSA mRNA; 0.04 μM,48%
same,Percent inhibition of PSA expression in C4-2 cells cultured in complete medium,PSA mRNA; 0.2 μM,78%
same,Percent inhibition of PSA expression in C4-2 cells cultured in complete medium,PSA mRNA; 1 μM,88%
same,Percent inhibition of PSA expression in C4-2 cells cultured in complete medium,PSA mRNA; 5.0 μM,89%
same,Proliferation (% untreated control) in LNCaP cells cultured in CSS + DHT medium,LNCaP cells; 0.04 μM,97 % untreated control
same,Proliferation (% untreated control) in LNCaP cells cultured in CSS + DHT medium,LNCaP cells; 0.2 μM,81 % untreated control
same,Proliferation (% untreated control) in LNCaP cells cultured in CSS + DHT medium,LNCaP cells; 1 μM,46 % untreated control
same,Proliferation (% untreated control) in LNCaP cells cultured in CSS + DHT medium,LNCaP cells; 5.0 μM,8 % untreated control
same,proliferation of LNCaP cells,LNCaP cells; complete medium or CSS+1 nM DHT,reduced proliferation of the cells in a dose dependent compared to the control
same,Proliferation (% untreated control) in LNCaP cells cultured in complete medium,LNCaP cells; 0.04 μM,96 % untreated control
same,Proliferation (% untreated control) in LNCaP cells cultured in complete medium,LNCaP cells; 0.2 μM,70 % untreated control
same,Proliferation (% untreated control) in LNCaP cells cultured in complete medium,LNCaP cells; 1 μM,48 % untreated control
same,Proliferation (% untreated control) in LNCaP cells cultured in complete medium,LNCaP cells; 5.0 μM,45 % untreated control

# From USRE48461E1, “Modulation of androgen receptor expression” (Ionis Pharmaceuticals, Inc., priority 2012, dated 2021)
